Legend:
Human melanocytes = assay: Melanin production assay in melanocytes; type: cell-based; settings: 6 days
Description: Materials and Methods: Human melanocytes from a moderately pigmented donor were purchased from Cascade Biologics (Portland, Oregon). Human dermal fibroblasts were purchased from Cambrex (Rockland, ME). In order to determine the optimal concentrations of the test materials for the whitening experiment, these materials were first examined in a proliferation assay with human dermal fibroblasts. The highest non-interfering concentration was determined for each test material and further 5-fold dilutions were made for use in melanocytes cultures. The following assay was used to the effects of the materials on melanin production. Melanocytes were seeded in the fully-supplemented 254 medium (Cascade) in 96 well plates and test materials were added 24 h later. Cells were grown for 6 days with one growth medium change. At the end of the experiment, cells were lysed with the Cellytic Mammalian Cell Lysis/Extraction Reagent (Sigma, St. Louis, MO) and melanin was solubilized in 2N NaOH. Melanin content was determined spectrophotometrically at 405 nm and standardized to total protein content from the same cultures, using Bradford reagent (Sigma, St. Louis, MO). Kojic acid was used as positive control. Cell cultures were monitored on a Nikon Eclipse inverted microscope.

Mushroom Tyrosinase = assay: Tyrosinase activity, modified Pomerantz method; type: biochemical; settings: H20 = 100.0
Description: Tyrosinase activity was measured by the modified Pomerantz method (Biophys Res Commun, 1964). Mushroom Tyrosinase (Sigma #3212816630) stock enzyme was 5 U/well (25 U/ml). The substrate (I-DOPA, Fisher Scientific, Pittsburgh, PA) stock solution was 20 mM. Working solution was prepared in PBS for each assay. The reaction mixture consisted of 50 μl 20 mM I-DOPA and 10 μl undiluted test sample. Reaction was initiated by adding tyrosinase. Assays were preformed in 96 well flat-bottom microtiter plates (Fisher #0720087) and read at 490 nm after 5, 10, and 20 min.

Structure (SMILES) | Melanin content (% of water control) (Human melanocytes; Dilution Factor 1/25-1/125, H20 = 100%) | Tyrosinase activity, % of water control (Mushroom Tyrosinase; read at 490 nm after 5 min) | Tyrosinase activity, % of water control (Mushroom Tyrosinase; read at 490 nm after 10 min) | Tyrosinase activity, % of water control (Mushroom Tyrosinase; read at 490 nm after 20 min) | activity at 200 µM (Human melanocytes; Melanocyte, 144 h, 200 μM, H20 = 100%, read-out: Melanin Inhibition in Cells) [%]
O=C1O[C@H]([C@@H](O)CO)C(O)=C1O[C@H]1O[C@H](CO)[C@@H](O)[C@H](O)[C@H]1O [Ascorbyl Glucoside, Ascorbyl glucoside] | 75-65.5% | 33.8 | 30.6 | 30.1 | 
O=c1cc(CO)occ1O [Kojic acid] |  | 39.0 | 35.5 | 33.1 | 83

Source: patent US12714657B2, “Magnolia extract containing compositions” (MARY KAY INC., priority 2007, dated 2026)
